{"source": "paper PMC7948422", "about": "“Repurposing p97 inhibitors for chemical modulation of the bacterial ClpB–DnaK bichaperone system” (The Journal of Biological Chemistry, 2020)", "key": {"E. coli ClpB": {"biological_target": "T1, E. coli ClpB (Escherichia coli, UniProt P63284)", "T1 construct": "made in house", "format": "biochemical", "experimental": "To determine the ATPase activity, ClpB was diluted to 28 μg/ml (49-nM hexamer) in buffer C (50-mM Tris-HCl, pH 7.4, 20-mM MgCl2, 1-mM EDTA, 0.5-mM tris(2-carboxyethyl)phosphine [TCEP]). In some experiments, the ClpB solution was supplemented with 17.4 μg/ml (10 μM) κ-casein. The ClpB aliquots (18 μl) were mixed with 1 μl of the investigated compounds at different concentrations in 100% DMSO or with DMSO as a control. A sample without ClpB was used as a baseline control. After a 10-min preincubation at 37 or 45 °C, the ATP hydrolysis reaction was initiated by adding 1 μl of 100-mM ATP. The samples were incubated for 60 min (basal ClpB activity in the absence of κ-casein) or 15 min (in the presence of κ-casein) at 37 °C or 30 min at 45 °C in the absence of casein. For the E678Q ClpB variant, the incubation time in the presence of κ-casein was 60 min. After incubation, 15 μl of each sample was mixed with 200 μl of the ammonium molybdate/malachite green reagent ([67]) dispensed into a 96-well plate, followed by an addition of 30 μl of 34% sodium citrate ([68]). The plate was agitated inside a Synergy H1 reader (BioTek, Winooski, VT) for 15 min at room temperature, and the samples’ absorbance was measured at 630 nm. The readouts for ClpB-containing samples were corrected for absorbance of samples without ClpB, to account for nonenzymatic production of inorganic phosphate. A standard curve obtained with different inorganic phosphate concentrations was used to determine the amount of phosphate produced from ATP in the presence of ClpB."}, "DnaK NBD [1]": {"biological_target": "T2, DnaK NBD (Escherichia coli, UniProt P0A6Y8)", "T2 construct": "the NBD of E. coli DnaK (residues 1–388); His-tag (pET28a) (C); made in house; host or cells: E. coli BL21(DE3)", "T2 sequence (P0A6Y8 1-388)": "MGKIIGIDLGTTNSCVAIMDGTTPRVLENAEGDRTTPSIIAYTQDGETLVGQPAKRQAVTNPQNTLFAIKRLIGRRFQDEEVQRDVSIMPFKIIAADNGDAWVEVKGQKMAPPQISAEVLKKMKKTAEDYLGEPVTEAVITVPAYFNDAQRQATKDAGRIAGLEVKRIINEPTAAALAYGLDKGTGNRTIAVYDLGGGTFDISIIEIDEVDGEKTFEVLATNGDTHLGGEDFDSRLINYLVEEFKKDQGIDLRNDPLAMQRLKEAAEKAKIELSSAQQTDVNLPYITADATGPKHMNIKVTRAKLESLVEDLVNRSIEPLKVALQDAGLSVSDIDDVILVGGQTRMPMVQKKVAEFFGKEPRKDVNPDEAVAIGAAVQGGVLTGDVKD", "experiment": "Surface plasmon resonance, immobilized DnaK NBD", "format": "binding", "experimental": "ClpB, DnaK, and the NBD of DnaK were extensively dialyzed against the SPR buffer (20-mM Hepes, pH 7.4, 150-mM NaCl, 20-mM MgCl2, 1-mM EDTA, 1-mM DTT). After dialysis, the protein concentration was determined by the Bradford method. The DBeQ–protein interactions were studied using a Biacore T200 instrument (GE Healthcare) at 25 °C. The proteins were diluted to 300 μg/ml in 10-mM sodium acetate buffer (pH 5 for ClpB DnaK or pH 4 for NBD) and immobilized on HC1500M sensor chips (Xantec) by standard amine coupling chemistry as described previously ([70]). A reference flow cell was created by ethyl(dimethylaminopropyl) carbodiimide/N-hydroxysuccinimide activation followed by quenching with 1 M ethanolamine (pH 9.0). Solvent correction curves were obtained at the beginning and end and after every 50 injection cycles by injecting varying DMSO concentrations (4.0, 4.4, 4.6, 4.8, 5.0, 5.2, 5.4, and 5.9% [v/v]). […]\nBinding isotherms were obtained with the ligand diluted to different concentrations in the SPR running buffer HBSMTD (20-mM Hepes, pH 7.4, 140-mM NaCl, 20-mM MgCl2, 5% (v/v) DMSO, 0.005% (v/v) Tween-20). […] The dissociation constants determined from those experiments were ∼20 μM for ATPγS and ∼2 mM for adenosine. […]\nThe resulting sensorgrams were analyzed using Biacore T200 Evaluation Software v3.0 according to the following procedure. […]"}, "[2]": {"parameters": "method as in PMID 21383145", "conditions": "cited from earlier work"}, "DnaK NBD [3]": {"biological_target": "T2, DnaK NBD", "experiment": "DnaK NBD ATPase activity assay", "format": "biochemical", "conditions": "100 µM DBeQ, 37 °C", "experimental": "To determine the ATPase activity of DnaK, 18 μl of DnaK solution or DnaK NBD solution prepared in buffer C was mixed with 1 μl of the investigated compounds or DMSO as a control. Samples without DnaK were used as control blanks. The samples were preincubated for 10 min at 37 °C. The reaction was initiated by adding 1 μl of 100-mM ATP bringing the final concentration of DnaK to 1.1 μM or DnaK NBD to 3.4 μM. The samples were incubated at 37 °C for 70 min for DnaK or 75 min for NBD. The concentration of inorganic phosphate produced from ATP in the presence of DnaK was determined as described above for ClpB."}}, "note": "Entries after “also recorded” stand apart in the source; their conditions may differ.", "data": [{"smiles": "c1ccc(CNc2nc(NCc3ccccc3)c3ccccc3n2)cc1", "note": "[DBeQ, N^2,N^4-dibenzylquinazoline-2,4-diamine]", "values": [{"measurement": "inhibition of the basal ClpB ATPase", "setting": "E. coli ClpB; 100 μM compound, no casein, 37 °C", "value": "None of the above compounds, except C3, showed a significant inhibition"}, {"measurement": "inhibition of the ClpB ATPase in the presence of casein", "setting": "E. coli ClpB; 100 μM compound, with κ-casein, 37 °C", "value": "strongly inhibited"}, {"measurement": "effect on basal ClpB ATPase under heat-shock conditions", "setting": "E. coli ClpB; 45 °C, no casein", "value": "unaffected; also recorded: does not inhibit"}, {"measurement": "Kd", "setting": "DnaK NBD [1]", "value": "95 ± 16", "unit": "µM"}, {"measurement": "Bmax (SPR signal at saturation), DnaK NBD", "setting": "DnaK NBD [1]; SPR", "value": "1.98 ± 0.20"}, {"measurement": "solubility in aqueous buffers", "setting": "[2]", "value": "limited"}, {"measurement": "effect on ATPase activity of isolated DnaK NBD", "setting": "DnaK NBD [3]", "value": "did not inhibit"}]}]}
